Test system: casein kinase 2 (CK2) complex proteins (CSNK2A1/3, CSNK2A2, CSNK2B, EIF3J)
Assay: Kinobead competition assay
Type: binding, human
From the text: The binding of KV-24 and KV-30 to the nucleotide-binding pocket raises the question of whether these compounds also target other nucleotide-binding proteins, such as kinases. To evaluate potential off-target effects, we performed Kinobead competition assays. This chemoproteomic approach is conceptually very similar to the one used here in that broad spectrum kinase inhibitors are immobilized on beads. […] PDE1C is a cAMP/cGMP nucleotide-binding protein that features two divalent metal cation cofactors. The hydroxamic acid moiety of KV-24 might chelate these metal cofactors, supporting the hypothesis that KV-24 binds the active site of PDE1C. […]
Given that local GTP production by NME1 and NME2 is essential for fueling dynamin-driven endocytosis, we investigated the effect of KV-50-mediated NME1/2 inhibition on fluorescent transferrin (TF) uptake in cells. HeLa cells were treated with KV-50 or known endocytosis inhibitors (Pitstop-2 and Dynasore), and surface-bound and internalized fluorescent TF were quantified. […]
LC-MS/MS. The different sample types were measured with different LC-MS/MS settings. MBLAC2 2-dose competition assays were measured with the Lumos1 setup, MBLAC2 9-dose competition assays were measured with the Lumos2 setup, and kinobeads assays were measured with the Eclipse setup. […]

Structure (SMILES): O=C(NO)c1ccc(-c2nc3ccccc3n3cccc23)cc1 [KV-24]
- casein kinase 2 family members binding: reduced binding at two-digit μM concentrations

Reference: publication PMC12186257, “Serendipitous and Systematic Chemoproteomic Discovery of MBLAC2, HINT1, and NME1‑4 Inhibitors from Histone Deacetylase-Targeting Pharmacophores” (ACS Chemical Biology, 2025)
